Measurements as given in US9199981B2 (NOVARTIS AG, priority 2011, dated 2015).

Target: c-kit (Homo sapiens (Human), UniProt P10721)
Assay: Mo7e cell proliferation assay (SCF dependent proliferation)
Format: cell-based
Conditions: Mo7e cells stimulated with human recombinant SCF, 48 hours, 1% FBS
Description: Compounds of Formula (I) and Formula (II) provided herein were assayed to measure their capacity to inhibit c-kit and PDGFR kinases using the appropriate assay described below: c-Kit inhibition was evaluated using the Mo7e cell proliferation assay, and PDGFR inhibition was evaluated using the Rat A10 cell proliferation assay and the Human TG/HA-VSMC cell proliferation assay.
Mo7e Cell Proliferation Assay
The compounds of Table 1 and Table 2 were tested for inhibition of SCF dependent proliferation using human Mo7e cells which endogenously express c-kit in a 384 well format. […] After 48 hours of incubation at 37° C., cell viability was measured by adding 25 uL of CellTiter Glo (Promega) to the cells and the luminescence was measured by a CLIPR CCD camera (Molecular Devices).
The IC50 value is given as that concentration of the test compound in question that provoke a response halfway between the baseline and maximum responses.

Sequence of c-kit (P10721 26-976): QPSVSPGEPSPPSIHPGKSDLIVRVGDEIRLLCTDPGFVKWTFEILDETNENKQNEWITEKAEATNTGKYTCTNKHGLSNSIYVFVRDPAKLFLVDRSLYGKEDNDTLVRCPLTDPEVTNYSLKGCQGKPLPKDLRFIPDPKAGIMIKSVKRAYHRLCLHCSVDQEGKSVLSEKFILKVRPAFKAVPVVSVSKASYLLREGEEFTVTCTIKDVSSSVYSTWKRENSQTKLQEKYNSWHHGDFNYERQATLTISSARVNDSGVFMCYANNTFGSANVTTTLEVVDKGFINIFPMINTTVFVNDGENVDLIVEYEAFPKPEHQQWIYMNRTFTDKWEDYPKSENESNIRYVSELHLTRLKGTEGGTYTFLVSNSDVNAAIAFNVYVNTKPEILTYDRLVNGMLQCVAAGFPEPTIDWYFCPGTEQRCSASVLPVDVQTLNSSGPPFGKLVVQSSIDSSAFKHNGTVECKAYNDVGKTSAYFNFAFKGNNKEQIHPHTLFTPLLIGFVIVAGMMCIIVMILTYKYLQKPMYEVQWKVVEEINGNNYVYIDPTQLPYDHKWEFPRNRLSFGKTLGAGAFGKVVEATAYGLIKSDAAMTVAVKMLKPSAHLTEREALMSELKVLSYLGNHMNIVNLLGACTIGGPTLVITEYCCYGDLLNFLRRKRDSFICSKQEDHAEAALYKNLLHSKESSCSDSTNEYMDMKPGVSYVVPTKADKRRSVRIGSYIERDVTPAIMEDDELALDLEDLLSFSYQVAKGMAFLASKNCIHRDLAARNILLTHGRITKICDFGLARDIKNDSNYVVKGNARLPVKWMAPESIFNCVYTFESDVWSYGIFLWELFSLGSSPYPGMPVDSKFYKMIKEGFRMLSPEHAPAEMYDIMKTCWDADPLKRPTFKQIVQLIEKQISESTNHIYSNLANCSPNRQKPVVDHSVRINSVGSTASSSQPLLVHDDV

IC50	SMILES
218 nM	Cc1ccc(-c2noc(C3CC3O)n2)cc1NC(=O)c1cnc2ccccn12 (stereo not drawn) [F159]
119 nM	Cc1ccc(-c2noc([C@H]3C[C@@](C)(O)C3)n2)cc1NC(=O)c1cnc2ccccn12 [F6, N-(5-(5-((1s,3s)-3-hydroxy-3-methylcyclobutyl)-1,2,4-oxadiazol-3-yl)-2-methylphenyl)imidazo[1,2-a]pyridine-3-carboxamide]
351 nM	Cc1ccc(-c2noc(C3CC(F)(F)C3)n2)cc1NC(=O)c1cnc2ccc(-c3cnn(CC(=O)O)c3)cn12 [F147]
451 nM	COCCN[C@H]1C[C@@H](c2nc(-c3ccc(C)c(NC(=O)c4cnc5ccccn45)c3)no2)C1 [F133]
105 nM	COCCOCc1ccc2ncc(C(=O)Nc3cc(-c4noc(C5CC(F)(F)C5)n4)ccc3C)n2c1 [F146]
22 nM	COCc1n[nH]c(-c2ccc3ncc(C(=O)Nc4cc(-c5noc(C6CC(F)(F)C6)n5)ccc4C)n3c2)n1 [F84]
56 nM	Cc1ccc2ncc(C(=O)Nc3cc(-c4noc(C5CC(F)C5)n4)ccc3C)n2c1 (stereo not drawn) [F112]
23 nM	Cc1ccc(-c2noc(C3CCC3)n2)cc1NC(=O)c1cnc2ccccn12 [F57]
40 nM	Cc1ccc(-c2noc([C@H]3C[C@](O)(C(F)(F)F)C3)n2)cc1NC(=O)c1cnc2ccc(F)cn12 [F90]
58 nM	Cc1ccc(-c2noc(C3(N(C)C)CC3)n2)cc1NC(=O)c1cnc2ccccn12 [F29, N-(5-(5-(1-(dimethylamino)cyclopropyl)-1,2,4-oxadiazol-3-yl)-2-methylphenyl)imidazo[1,2-a]pyridine-3-carboxamide]
203 nM	CO/N=C1/CCC(c2nc(-c3ccc(C)c(NC(=O)c4cnc5ccccn45)c3)no2)C1 (stereo not drawn) [F117]
57 nM	Cc1ccc(-c2noc(C3CC3)n2)cc1NC(=O)c1cnc2ccccn12 [F104]
140 nM	Cc1ccc(-c2noc(C3CC(=O)C3)n2)cc1NC(=O)c1cnc2ccccn12 [F121]
55 nM	Cc1ccc(-c2noc(C3CC4(C3)OCCO4)n2)cc1NC(=O)c1cnc2ccccn12 [F8, N-(5-(5-(5,8-dioxaspiro[3.4]octan-2-yl)-1,2,4-oxadiazol-3-yl)-2-methylphenyl)imidazo[1,2-a]pyridine-3-carboxamide]
554 nM	COCC(=O)NC1(c2nc(-c3ccc(C)c(NC(=O)c4cnc5ccccn45)c3)no2)CC1 [F132]
109 nM	Cc1ccc(-c2noc([C@H]3C[C@H](N)C3)n2)cc1NC(=O)c1cnc2ccccn12 [F17]
69 nM	COC(=O)NC1(c2nc(-c3ccc(C)c(NC(=O)c4cnc5ccccn45)c3)no2)CCC1 [F27]

IC50	SMILES
139 nM	Cc1ccc(-c2noc(C3CC(F)(F)C3)n2)cc1NC(=O)c1cnc2ccc(-n3cncc3C)cn12 [F163]
148 nM	COC(=O)NC1CC(c2nc(-c3ccc(C)c(NC(=O)c4cnc5ccccn45)c3)no2)C1 (stereo not drawn) [F142]
125 nM	CC1(C)CC(c2nc(-c3ccc(F)c(NC(=O)c4cnc5ccccn45)c3)no2)C1 [F156]
35 nM	[2H]c1c([2H])c([2H])n2c(C(=O)Nc3cc(-c4noc(C5CC(F)(F)C5)n4)ccc3C)cnc2c1[2H] [F92]
9 nM	Cc1ccc(-c2noc(C3CC(F)(F)C3)n2)cc1NC(=O)c1cnc2ccc(-c3cn[nH]c3)cn12 [F40, N-(5-(5-(3,3-difluorocyclobutyl)-1,2,4-oxadiazol-3-yl)-2-methylphenyl)-6-(1H-pyrazol-4-yl)imidazo[1,2-a]pyridine-3-carboxamide]
311 nM	Cc1ccc(-c2noc(C3(N)CC3)n2)cc1NC(=O)c1cnc2ccccn12 [F131]
46 nM	Cc1ccc(-c2noc([C@H]3CC3(F)F)n2)cc1NC(=O)c1cnc2ccccn12 (stereo in doubt) [F87, N-(5-(5-(2,2-difluorocyclopropyl)-1,2,4-oxadiazol-3-yl)-2-methylphenyl)imidazo[1,2-a]pyridine-3-carboxamide]
58 nM	COC(=O)NC1(c2nc(-c3ccc(C)c(NC(=O)c4cnc5ccccn45)c3)no2)CC1 [F24]
12 nM	Cc1ccc(-c2noc(C3CC(F)(F)C3)n2)cc1NC(=O)c1cnc2ccc(-c3ccn(C)n3)cn12 [F43]
213 nM	Cc1ccc(-c2noc(C3CC(=NOCCN4CCOCC4)C3)n2)cc1NC(=O)c1cnc2ccccn12 (stereo not drawn) [F126]
107 nM	Cc1ccn2c(C(=O)Nc3cc(-c4noc(C5CC5(F)F)n4)ccc3C)cnc2c1 (stereo not drawn) [F165]
89 nM	Cc1ccc(-c2noc(C3(NC(=O)OC(C)(C)C)CC3)n2)cc1NC(=O)c1cnc2ccccn12 [F21]
52 nM	Cc1ccc(-c2noc(C3CC3(F)F)n2)cc1NC(=O)c1cnc2ccccn12 (stereo not drawn) [F64, N-(5-(5-(2,2-difluorocyclopropyl)-1,2,4-oxadiazol-3-yl)-2-methylphenyl)imidazo[1,2-a]pyridine-3-carboxamide]
19 nM	[2H]C([2H])([2H])c1ccn2c(C(=O)Nc3cc(-c4noc(C5CC(F)(F)C5)n4)ccc3C)cnc2c1 [F80]
7 nM	Cc1ccc(-c2noc(C3CC(F)(F)C3)n2)cc1NC(=O)c1cnc2cc(N3CCOCC3)ccn12 [F59, N-(5-(5-(3,3-difluorocyclobutyl)-1,2,4-oxadiazol-3-yl)-2-methylphenyl)-7-morpholinoimidazo[1,2-a]pyridine-3-carboxamide]
55 nM	Cc1nnc(-c2ccc3ncc(C(=O)Nc4cc(-c5noc(C6CC(F)(F)C6)n5)ccc4C)n3c2)[nH]1 [F79, N-(5-(5-(3,3-difluorocyclobutyl)-1,2,4-oxadiazol-3-yl)-2-methylphenyl)-6-(5-methyl-1H-1,2,4-triazol-3-yl)imidazo[1,2-a]pyridine-3-carboxamide]

Second part, the molecule before the results:

SMILES	IC50
Cc1ccc(-c2noc(CCC3(O)CC3)n2)cc1NC(=O)c1cnc2ccccn12 [F55a, N-(5-(5-(2-(1-hydroxycyclopropyl)ethyl)-1,2,4-oxadiazol-3-yl)-2-methylphenyl)imidazo[1,2-a]pyridine-3-carboxamide]	92 nM
Cc1ccc(-c2noc(C3(O)CC3)n2)cc1NC(=O)c1cnc2ccccn12 [F148]	305 nM
Cc1ccc(-c2noc(C3CC4(CC(=O)C4)C3)n2)cc1NC(=O)c1cnc2ccccn12 [F75, N-(2-methyl-5-(5-(6-oxospiro[3.3]heptan-2-yl)-1,2,4-oxadiazol-3-yl)phenyl)imidazo[1,2-a]pyridine-3-carboxamide]	17 nM
Cc1ccc(-c2noc(C3CC4(C3)OC[C@@H](C)O4)n2)cc1NC(=O)c1cnc2ccccn12 (stereo partly drawn) [F9]	52 nM
Cc1ccc2ncc(C(=O)Nc3cc(-c4noc(COC5CC(F)(F)C5(F)F)n4)ccc3C)n2c1 (stereo not drawn) [F103]	16 nM
Cc1ccc(-c2noc(C3CCCC3)n2)cc1NC(=O)c1cnc2ccccn12 [F74]	33 nM
Cc1ccn2c(C(=O)Nc3cc(-c4noc([C@H]5C[C@](O)(C(F)(F)F)C5)n4)ccc3C)cnc2c1 [F89]	25 nM
Cc1ccc(-c2noc(C3(CO)CC3)n2)cc1NC(=O)c1cnc2ccccn12 [F139]	137 nM
Cc1ccc(-c2noc(C3(O)CCC3)n2)cc1NC(=O)c1cnc2ccccn12 [F167]	144 nM
Cc1ccc(-c2noc(C3CC(F)(F)C3)n2)cc1NC(=O)c1cnc2cc(N3CCCC3=O)ccn12 [F76]	37 nM
Cc1ccc(-c2noc(C3CC(=NOC(C)C)C3)n2)cc1NC(=O)c1cnc2ccccn12 (stereo not drawn) [F16]	66 nM
Cc1ccc(-c2noc(C3CC(=NO)C3)n2)cc1NC(=O)c1cnc2ccccn12 (stereo not drawn) [F4]	22 nM
Cc1ccc(-c2noc([C@H]3C[C@@H](N4CCCCC4)C3)n2)cc1NC(=O)c1cnc2ccccn12 [F123]	345 nM
O=C(Nc1cc(-c2noc(C3CCC3)n2)ccc1F)c1cnc2ccccn12 [F152]	151 nM
Cc1ccc(-c2noc(C3CC(n4cncn4)C3)n2)cc1NC(=O)c1cnc2ccccn12 (stereo not drawn) [F150]	167 nM
Cc1ccc(-c2noc(C3(C(N)=O)CC3)n2)cc1NC(=O)c1cnc2ccc(F)cn12 [F168]	516 nM
Cc1ccc(-c2noc([C@H]3C[C@@H](O)C3)n2)cc1NC(=O)c1cnc2ccc(F)cn12 [F151]	181 nM
Cc1ccn2c(C(=O)Nc3cc(-c4noc(C5CC(F)C5)n4)ccc3C)cnc2c1 (stereo not drawn) [F111]	46 nM
Cc1ccc(-c2noc(C3CC(n4cccn4)C3)n2)cc1NC(=O)c1cnc2ccccn12 (stereo not drawn) [F45, N-(5-(5-(3-(1H-pyrazol-1-yl)cyclobutyl)-1,2,4-oxadiazol-3-yl)-2-methylphenyl)imidazo[1,2-a]pyridine-3-carboxamide]	71 nM
Cc1ccc(-c2noc(C3(NC(=O)OC(C)(C)C)CCC3)n2)cc1NC(=O)c1cnc2ccccn12 [F136]	171 nM
Cc1ccc(-c2noc(CNC(=O)OC3(C)CC3)n2)cc1NC(=O)c1cnc2cc(C(F)(F)F)ccn12 [F141]	391 nM
Cc1ccc(-c2noc(C3(NS(C)(=O)=O)CC3)n2)cc1NC(=O)c1cnc2ccccn12 [F22]	56 nM
Cc1ccc(-c2noc(C3CCC(F)(F)CC3)n2)cc1NC(=O)c1cnc2ccccn12 [F5]	24 nM
Cc1ccc(-c2noc(C3CC(F)(F)C3)n2)cc1NC(=O)c1cnc2ccc(N3CCOCC3)cn12 [F81]	26 nM
Cc1ccc(-c2noc(CNC(=O)C3CC3(F)F)n2)cc1NC(=O)c1cnc2ccccn12 (stereo not drawn) [F140]	132 nM

Same assay, conditions: Mo7e cells stimulated with human recombinant SCF, 48 hours, 20% FBS (values marked *)

IC50	SMILES
182 nM	Cc1ccc(-c2noc(C3CC(C)(O)C3)n2)cc1NC(=O)c1cnc2ccccn12 (stereo not drawn) [F116]
322 nM	Cc1ccc(-c2nc(C3CC3)no2)cc1NC(=O)c1cnc2ccccn12 [F114]
41 nM	Cc1ccc(-c2noc(C3CC(=O)C3)n2)cc1NC(=O)c1cnc2ccccn12 [F11]
164 nM	Cc1ccc(-c2noc(C3CC(C)(O)C3)n2)cc1NC(=O)c1cnc2ccccn12 (stereo not drawn) [F3]
58 nM	Cc1ccc(-c2noc(C3CCC(=O)C3)n2)cc1NC(=O)c1cnc2ccccn12 (stereo not drawn) [F2]
